According to US11629139B2 (priority 2017, dated 2023):

Tested on: vesicular stomatitis virus particles (VSV) pseudotyped with EboV Zaire GP
Experiment: microbe, parasite or virus in culture
Type: cell-based
Conditions: Vesicular stomatitis virus

Row | Compound | IC50 [µM]
1 | NC(=O)Nc1ccc(Br)cc1CN1CCN(C(=O)CNC(=O)CC2CCC(F)(F)CC2)CC1 [Compound 1360, N-(2-(4-(5-Bromo-2-ureidobenzyl)piperazin-1-yl)-2-oxoethyl)-2-(4,4-difluorocyclohexyl)acetamide] | > 2
2 | NC(=O)Nc1ccc(Cl)cc1CN1CCN(C(=O)CNC(=O)CC2CCC(F)(F)CC2)CC1 [Compound 1361, N-(2-(4-(5-Chloro-2-ureidobenzyl)piperazin-1-yl)-2-oxoethyl)-2-(4,4-difluorocyclohexyl)acetamide] | > 2
3 | Nc1ccc(Br)cc1CN1CCN(C(=O)CNC(=O)C2C3CC(F)(F)CC32)CC1 (stereo not drawn) [Compound 1362, N-(2-(4-(2-Amino-5-bromobenzyl)piperazin-1-yl)-2-oxoethyl)-3,3-difluorobicyclo[3.1.0]hexane-6-carboxamide] | > 2
4 | O=C(CC12CC3CC(CC(C3)C1)C2)NCC(=O)N1CCN(Cc2c(Cl)cccc2Cl)CC1 [Compound 1363, 2-((1R,3R,5S)-Adamantan-1-yl)-N-(2-(4-(2,6-dichlorobenzyl)piperazin-1-yl)-2-oxoethyl)acetamide] | 1
5 | NC(=O)c1ccc(Br)cc1CN1CCN(C(=O)CNC(=O)CC23CC4CC(CC(C4)C2)C3)CC1 [Compound 1364, 2-((4-((2-((1R,3R,5S)-Adamantan-1-yl)acetyl)glycyl)piperazin-1-yl)methyl)-4-bromobenzamide] | 1.9
6 | O=C(CC1CCC(F)(F)CC1)NCC(=O)N1CCN(Cc2cc(Cl)cc(OC3CC3)c2)CC1 [Compound 1365, N-(2-(4-(3-Chloro-5-cyclopropoxybenzyl)piperazin-1-yl)-2-oxoethyl)-2-(4,4-difluorocyclohexyl)acetamide] | 1.6
7 | O=C(CC1CCC(F)(F)CC1)NCC(=O)N1CCN(Cc2cc(Cl)ccc2Cl)CC1 [Compound 1366, N-(2-(4-(2,5-Dichlorobenzyl)piperazin-1-yl)-2-oxoethyl)-2-(4,4-difluorocyclohexyl)acetamide] | > 2
8 | O=C(CC1CCC(F)(F)CC1)NCC(=O)N1CCN(Cc2cc(Cl)ccc2F)CC1 [Compound 1367, N-(2-(4-(5-chloro-2-fluorobenzyl)piperazin-1-yl)-2-oxoethyl)-2-(4,4-difluorocyclohexyl)acetamide] | > 2
9 | O=C(CC1CCC(F)(F)CC1)NCC(=O)N1CCN(Cc2cc(Cl)c(F)cc2F)CC1 [Compound 1368, N-(2-(4-(5-chloro-2,4-difluorobenzyl)piperazin-1-yl)-2-oxoethyl)-2-(4,4-difluorocyclohexyl)acetamide] | > 2
10 | O=C(CC1CCC(F)(F)CC1)NCC(=O)N1CCN(Cc2cc(Cl)cc(F)c2F)CC1 [Compound 1369, N-(2-(4-(5-Chloro-2,3-difluorobenzyl)piperazin-1-yl)-2-oxoethyl)-2-(4,4-difluorocyclohexyl)acetamide] | > 2
11 | O=C(CC1CCC(F)(F)CC1)NCC(=O)N1CCN(Cc2cc(Br)ccc2F)CC1 [Compound 1370, N-(2-(4-(5-Bromo-2-fluorobenzyl)piperazin-1-yl)-2-oxoethyl)-2-(4,4-difluorocyclohexyl)acetamide] | ~2.2
12 | N#Cc1ccc(Br)cc1CN1CCN(C(=O)CNC(=O)CC2CCC(F)(F)CC2)CC1 [Compound 1371, N-(2-(4-(5-Bromo-2-cyanobenzyl)piperazin-1-yl)-2-oxoethyl)-2-(4,4-difluorocyclohexyl)acetamide] | > 2
13 | O=C(CC1CCC(F)(F)CC1)NCC(=O)N1CCN(Cc2cc(Cl)ccc2OC(F)(F)F)CC1 [Compound 1372] | > 2
14 | O=C(CC1CCC(F)(F)CC1)NCC(=O)N1CCN(Cc2cc(Br)ccc2Cl)CC1 [Compound 1374, N-(2-(4-(5-Bromo-2-chlorobenzyl)piperazin-1-yl)-2-oxoethyl)-2-(4,4-difluorocyclohexyl)acetamide] | > 2
15 | O=C(CC1CCC(F)(F)CC1)NCC(=O)N1CCN(Cc2cc(Br)ccc2NC(=O)C2CC2)CC1 [Compound 1375, N-(4-Bromo-2-((4-((2-(4,4-difluorocyclohexyl)acetyl)glycyl)piperazin-1-yl)methyl)phenyl)cyclopropanecarboxamide] | > 2
